Laboratory results taken from the NIST ThermoML archive (doi:10.1016/j.tca.2015.03.026).
Where “and” joins values, the source holds several entries; their conditions need not be identical. Equal values may be shown once.

How the values were obtained:
[1] = for Normal melting temperature: DTA
[2] = Molar enthalpy of transition or fusion; conditions: Crystal; DSC

COc1ccc(C(=O)O)cc1 [4-methoxybenzoic acid]
[1], Crystal, Transpiration method
Conditions | vapor or sublimation pressure [kPa]
363.3 K | 0.00117
368.2 K | 0.0019
374.9 K | 0.00353
383.2 K | 0.00753
384.5 K | 0.0085
388.3 K | 0.01217
391.1 K | 0.01556
394.2 K | 0.01971
397.2 K | 0.0267
400.3 K | 0.03247
403.4 K | 0.04422
406.2 K | 0.05311

Cc1ccc(C(=O)O)cc1 [4-methylbenzoic acid]
[1], Crystal, Transpiration method
Conditions | vapor or sublimation pressure [kPa]
340.4 K | 0.00123
343.3 K | 0.00162
348.5 K | 0.00271
356.7 K | 0.00558
359.3 K | 0.00715
363.9 K | 0.01097
368.5 K | 0.01623
373.7 K | 0.02473
374.4 K | 0.02687
378.8 K | 0.03813
380.1 K | 0.04273
384.4 K | 0.05807
389.2 K | 0.08453
394 K | 0.1213
398.8 K | 0.1748

Conditions | Normal melting temperature [°C]
[1], Crystal | 180.2

Conditions | Molar enthalpy of transition or fusion [kcal/mol]
[2] | 5.33

COc1cccc(C(=O)O)c1 [3-methoxybenzoic acid]
Conditions | Normal melting temperature [°C]
[1], Crystal | 109.0

Conditions | Molar enthalpy of transition or fusion [kcal/mol]
[2] | 5.23

Cc1ccccc1C(=O)O [2-methylbenzoic acid]
[1], Crystal, Transpiration method
Conditions | vapor or sublimation pressure [kPa]
331.2 K | 0.0028
335.2 K | 0.00421
341.2 K | 0.00767
345.2 K | 0.0112
348.2 K | 0.01564
351.2 K | 0.01962
355.4 K | 0.02895
358.6 K | 0.0389
358.7 K | 0.03932
361.2 K | 0.05138
364.2 K | 0.06664
367.4 K | 0.08391
373 K | 0.1339

COc1ccccc1C(=O)O [2-methoxybenzoic acid]
[1]
Conditions | vapor or sublimation pressure
318.25 K, Crystal, Closed cell (Static) method | 6.16e-05 kPa
320.73 K, Crystal, Closed cell (Static) method | 8.28e-05 kPa
323.21 K, Crystal, Closed cell (Static) method | 0.0001133 kPa
325.68 K, Crystal, Closed cell (Static) method | 0.0001504 kPa
328.17 K, Crystal, Closed cell (Static) method | 0.0002043 kPa
330.65 K, Crystal, Closed cell (Static) method | 0.0002676 kPa
333.12 K, Crystal, Closed cell (Static) method | 0.0003567 kPa
335.61 K, Crystal, Closed cell (Static) method | 0.0004802 kPa
335.62 K, Crystal, Closed cell (Static) method | 0.0004752 kPa
338.08 K, Crystal, Closed cell (Static) method | 0.0006182 kPa
340.58 K, Crystal, Closed cell (Static) method | 0.000822 kPa and 0.0008262 kPa
343.05 K, Crystal, Closed cell (Static) method | 0.001076 kPa
344.3 K, Crystal, Transpiration method | 0.00121 kPa
345.3 K, Crystal, Transpiration method | 0.00133 kPa
345.4 K, Crystal, Transpiration method | 0.00133 kPa
345.54 K, Crystal, Closed cell (Static) method | 0.001402 kPa
346.4 K, Crystal, Transpiration method | 0.0015 kPa
347.2 K, Crystal, Transpiration method | 0.00163 kPa
347.4 K, Crystal, Transpiration method | 0.00164 kPa
348.02 K, Crystal, Closed cell (Static) method | 0.001813 kPa
348.34 K, Crystal, Closed cell (Static) method | 0.001883 kPa
348.4 K, Crystal, Transpiration method | 0.00179 kPa
349.2 K, Crystal, Transpiration method | 0.00196 kPa
350.4 K, Crystal, Transpiration method | 0.0023 kPa
350.5 K, Crystal, Closed cell (Static) method | 0.002351 kPa
350.82 K, Crystal, Closed cell (Static) method | 0.002438 kPa
352.4 K, Crystal, Transpiration method | 0.00275 kPa
353.3 K, Crystal, Closed cell (Static) method | 0.003074 kPa
353.5 K, Crystal, Transpiration method | 0.00317 kPa
354.5 K, Crystal, Transpiration method | 0.00349 kPa
355.5 K, Crystal, Transpiration method | 0.00377 kPa
355.78 K, Crystal, Closed cell (Static) method | 0.003984 kPa
356.5 K, Crystal, Transpiration method | 0.00408 kPa
357.6 K, Crystal, Transpiration method | 0.00472 kPa
358.26 K, Crystal, Closed cell (Static) method | 0.005029 kPa
358.4 K, Crystal, Transpiration method | 0.00508 kPa
359.5 K, Crystal, Transpiration method | 0.00566 kPa
360.5 K, Crystal, Transpiration method | 0.00637 kPa
360.75 K, Crystal, Closed cell (Static) method | 0.006481 kPa
361.6 K, Crystal, Transpiration method | 0.00677 kPa
362.5 K, Crystal, Transpiration method | 0.00755 kPa
363.23 K, Crystal, Closed cell (Static) method | 0.008104 kPa
363.6 K, Crystal, Transpiration method | 0.00827 kPa
364.5 K, Crystal, Transpiration method | 0.00908 kPa
365.71 K, Crystal, Closed cell (Static) method | 0.01039 kPa
366.4 K, Crystal, Transpiration method | 0.0107 kPa
366.6 K, Crystal, Transpiration method | 0.01098 kPa
368.19 K, Crystal, Closed cell (Static) method | 0.01325 kPa
368.6 K, Crystal, Transpiration method | 0.01323 kPa
369.6 K, Crystal, Transpiration method | 0.01454 kPa
378.32 K, Liquid, Closed cell (Static) method | 0.0318 kPa
378.33 K, Liquid, Closed cell (Static) method | 0.0318 kPa
380.81 K, Liquid, Closed cell (Static) method | 0.0371 kPa
380.82 K, Liquid, Closed cell (Static) method | 0.0371 kPa
383.29 K, Liquid, Closed cell (Static) method | 0.0435 kPa
383.32 K, Liquid, Closed cell (Static) method | 0.0435 kPa
385.78 K, Liquid, Closed cell (Static) method | 0.0507 kPa and 0.0504 kPa
388.26 K, Liquid, Closed cell (Static) method | 0.0588 kPa
388.29 K, Liquid, Closed cell (Static) method | 0.0585 kPa
390.97 K, Liquid, Closed cell (Static) method | 0.0691 kPa
390.98 K, Liquid, Closed cell (Static) method | 0.0695 kPa
393.47 K, Liquid, Closed cell (Static) method | 0.0797 kPa and 0.0801 kPa
395.94 K, Liquid, Closed cell (Static) method | 0.0929 kPa
395.95 K, Liquid, Closed cell (Static) method | 0.0933 kPa
398.44 K, Liquid, Closed cell (Static) method | 0.1072 kPa and 0.1071 kPa
400.91 K, Liquid, Closed cell (Static) method | 0.1239 kPa
400.94 K, Liquid, Closed cell (Static) method | 0.1244 kPa
403.41 K, Liquid, Closed cell (Static) method | 0.1413 kPa
403.44 K, Liquid, Closed cell (Static) method | 0.1428 kPa
405.88 K, Liquid, Closed cell (Static) method | 0.1621 kPa
405.89 K, Liquid, Closed cell (Static) method | 0.1621 kPa
408.38 K, Liquid, Closed cell (Static) method | 0.1849 kPa
408.39 K, Liquid, Closed cell (Static) method | 0.1865 kPa
410.85 K, Liquid, Closed cell (Static) method | 0.2113 kPa
410.87 K, Liquid, Closed cell (Static) method | 0.2131 kPa
413.34 K, Liquid, Closed cell (Static) method | 0.2389 kPa
413.38 K, Liquid, Closed cell (Static) method | 0.242 kPa

Conditions | Normal melting temperature [°C]
[1], Crystal | 101.6

Conditions | Molar enthalpy of transition or fusion [kcal/mol]
[2] | 5.71

O=C(O)c1ccccc1 [benzoic acid]
[1], Crystal
Conditions | vapor or sublimation pressure [kPa]
297.67 K, Closed cell (Static) method | 0.000108
299.96 K, Closed cell (Static) method | 0.000142
300.03 K, Closed cell (Static) method | 0.000143
302.51 K, Closed cell (Static) method | 0.000193
304.75 K, Closed cell (Static) method | 0.00025
307.27 K, Closed cell (Static) method | 0.000335
309.63 K, Closed cell (Static) method | 0.000436
312.08 K, Closed cell (Static) method | 0.000573
314.4 K, Closed cell (Static) method | 0.000738
314.59 K, Closed cell (Static) method | 0.000754
316.3 K, Transpiration method | 0.00095
316.91 K, Closed cell (Static) method | 0.000969
319.48 K, Closed cell (Static) method | 0.00127
320.4 K, Transpiration method | 0.00147
321.91 K, Closed cell (Static) method | 0.00164
324 K, Transpiration method | 0.00214
324.39 K, Closed cell (Static) method | 0.00212
326.76 K, Closed cell (Static) method | 0.00268
327.4 K, Transpiration method | 0.00302
329.2 K, Closed cell (Static) method | 0.00343
331.62 K, Closed cell (Static) method | 0.00436
332.4 K, Transpiration method | 0.00495
334.07 K, Closed cell (Static) method | 0.00554
336.46 K, Closed cell (Static) method | 0.00693
337.4 K, Transpiration method | 0.00809
338.98 K, Closed cell (Static) method | 0.00873
342.3 K, Transpiration method | 0.01272
347.3 K, Transpiration method | 0.01965
352.4 K, Transpiration method | 0.03114
357.4 K, Transpiration method | 0.04619
362.5 K, Transpiration method | 0.06987
367.5 K, Transpiration method | 0.1076
